Results as given in patent US8471005B2 (Cephalon, Inc., priority 2008, dated 2013).
Where two headings read alike, the source gives them in different places.

Columns and labels:
ALK = molecular target: T1, ALK (Homo sapiens, UniProt Q9UM73); assay: ALK Kinase Assay (ELISA/TRF, PLC-γ substrate); type: biochemical; settings: read-out: ALK Potency
T1 construct: host or cells: baculovirus expression system
Method in brief: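 First, plates are coated with substrate (phospholipase C-γ, 10 μg/mL, TBS). Next, 30 ng/ml ALK initiates phosphorylation for 15 min at 37° C. Then Eu-N1 PT66 antibody is added for detection, and a nonlinear dose-response fit of percent inhibition yields IC50.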

JAK2 = molecular target: T2, JAK2 (Homo sapiens, UniProt O60674); assay: Recombinant Human JAK2 Kinase Assay (TRF); type: biochemical; settings: read-out: JAK2 Potency
T2 construct: host or cells: baculovirus expression system
T2 sequence (O60674 whole entry): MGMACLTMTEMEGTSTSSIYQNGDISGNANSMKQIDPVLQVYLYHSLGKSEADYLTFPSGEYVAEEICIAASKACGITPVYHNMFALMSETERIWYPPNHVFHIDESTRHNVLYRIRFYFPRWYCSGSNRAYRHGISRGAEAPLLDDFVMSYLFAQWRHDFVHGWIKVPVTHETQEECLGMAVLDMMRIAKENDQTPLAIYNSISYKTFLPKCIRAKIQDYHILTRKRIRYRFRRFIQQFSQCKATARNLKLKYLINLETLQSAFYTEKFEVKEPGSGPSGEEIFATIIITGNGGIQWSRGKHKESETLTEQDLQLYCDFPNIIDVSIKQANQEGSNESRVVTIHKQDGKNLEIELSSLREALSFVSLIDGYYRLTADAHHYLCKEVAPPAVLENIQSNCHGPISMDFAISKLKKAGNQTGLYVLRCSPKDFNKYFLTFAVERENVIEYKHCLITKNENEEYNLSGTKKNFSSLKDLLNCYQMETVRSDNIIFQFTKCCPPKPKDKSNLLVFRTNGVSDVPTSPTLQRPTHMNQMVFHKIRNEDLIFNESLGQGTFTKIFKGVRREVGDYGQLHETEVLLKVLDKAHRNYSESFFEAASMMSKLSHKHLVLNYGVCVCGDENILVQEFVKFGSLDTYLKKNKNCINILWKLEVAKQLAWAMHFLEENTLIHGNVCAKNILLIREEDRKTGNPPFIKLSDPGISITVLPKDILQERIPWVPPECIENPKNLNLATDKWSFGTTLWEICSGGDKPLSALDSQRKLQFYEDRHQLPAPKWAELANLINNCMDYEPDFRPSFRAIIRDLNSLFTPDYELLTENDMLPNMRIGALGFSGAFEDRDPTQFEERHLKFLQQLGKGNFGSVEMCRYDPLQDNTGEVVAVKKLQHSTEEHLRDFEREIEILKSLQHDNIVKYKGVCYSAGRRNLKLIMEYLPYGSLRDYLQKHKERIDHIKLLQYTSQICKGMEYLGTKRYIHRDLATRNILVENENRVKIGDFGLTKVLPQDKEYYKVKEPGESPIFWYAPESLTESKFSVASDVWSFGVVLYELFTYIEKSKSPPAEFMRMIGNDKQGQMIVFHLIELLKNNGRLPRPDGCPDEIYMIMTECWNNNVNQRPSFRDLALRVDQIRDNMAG
Method in brief: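 Baculovirus-expressed JAK2 (15 ng/ml) phosphorylated a biotinylated 15-mer peptide captured on Neutravidin, in 20 mM HEPES pH 7.2, 0.2 μM ATP, 1 mM MnCl2, 0.1% BSA, 2.5% DMSO final, 20 min at room temperature. Phosphoproduct detected by time-resolved fluorescence with Eu-N1-labelled PY100 antibody.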

[1] = ALK kinase inhibition, 1 μM ATP
[2] = JAK2 kinase inhibition, 0.2 μM ATP

T1 sequence (Q9UM73 19-1620): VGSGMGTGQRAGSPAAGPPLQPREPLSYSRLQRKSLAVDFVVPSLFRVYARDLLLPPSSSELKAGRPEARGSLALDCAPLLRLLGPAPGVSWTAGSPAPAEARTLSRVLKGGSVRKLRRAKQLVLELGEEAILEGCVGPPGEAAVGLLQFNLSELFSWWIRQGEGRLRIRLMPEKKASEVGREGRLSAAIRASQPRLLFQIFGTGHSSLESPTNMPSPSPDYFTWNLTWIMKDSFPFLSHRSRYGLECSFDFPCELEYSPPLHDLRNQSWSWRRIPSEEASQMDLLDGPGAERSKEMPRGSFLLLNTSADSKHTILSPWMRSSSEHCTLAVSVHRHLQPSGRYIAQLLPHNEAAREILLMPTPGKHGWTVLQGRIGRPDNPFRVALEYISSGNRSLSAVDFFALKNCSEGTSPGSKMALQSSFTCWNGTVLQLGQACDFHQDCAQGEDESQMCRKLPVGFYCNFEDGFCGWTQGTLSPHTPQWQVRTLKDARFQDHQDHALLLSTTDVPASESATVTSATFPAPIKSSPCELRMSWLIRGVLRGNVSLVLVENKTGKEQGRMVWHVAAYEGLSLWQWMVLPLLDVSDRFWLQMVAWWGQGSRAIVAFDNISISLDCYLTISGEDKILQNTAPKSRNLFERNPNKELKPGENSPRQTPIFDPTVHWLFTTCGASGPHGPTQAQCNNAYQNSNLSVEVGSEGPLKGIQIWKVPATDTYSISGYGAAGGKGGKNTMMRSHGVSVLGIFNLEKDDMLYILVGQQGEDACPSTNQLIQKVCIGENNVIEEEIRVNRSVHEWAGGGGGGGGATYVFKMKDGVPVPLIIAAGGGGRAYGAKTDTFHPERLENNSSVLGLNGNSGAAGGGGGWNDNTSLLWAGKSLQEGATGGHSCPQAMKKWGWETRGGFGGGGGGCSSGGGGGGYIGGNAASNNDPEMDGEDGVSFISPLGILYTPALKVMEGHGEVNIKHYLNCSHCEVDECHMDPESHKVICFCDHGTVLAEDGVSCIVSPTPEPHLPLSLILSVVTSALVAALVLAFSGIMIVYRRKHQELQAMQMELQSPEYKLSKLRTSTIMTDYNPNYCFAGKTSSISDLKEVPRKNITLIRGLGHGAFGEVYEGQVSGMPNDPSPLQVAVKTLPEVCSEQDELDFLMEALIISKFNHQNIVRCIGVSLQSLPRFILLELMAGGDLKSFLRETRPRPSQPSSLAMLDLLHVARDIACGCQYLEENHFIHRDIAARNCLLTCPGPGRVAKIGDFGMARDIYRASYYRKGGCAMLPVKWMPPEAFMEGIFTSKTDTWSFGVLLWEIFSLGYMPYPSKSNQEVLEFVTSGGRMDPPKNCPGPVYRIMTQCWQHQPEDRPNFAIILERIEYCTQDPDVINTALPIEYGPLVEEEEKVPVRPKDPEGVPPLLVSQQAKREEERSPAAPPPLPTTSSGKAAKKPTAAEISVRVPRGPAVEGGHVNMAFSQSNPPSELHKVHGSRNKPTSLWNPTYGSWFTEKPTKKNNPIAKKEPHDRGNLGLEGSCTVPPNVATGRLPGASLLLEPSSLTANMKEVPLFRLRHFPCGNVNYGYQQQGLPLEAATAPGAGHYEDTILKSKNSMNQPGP

| Compound | IC50 (ALK; [1]) [nM] | IC50 (JAK2; [2]) [nM] | IC50 (ALK; ALK Kinase Inhibition) [nM] | IC50 (JAK2; JAK2 Kinase Inhibition) [nM] |
| --- | --- | --- | --- | --- |
| CC(C)(C)NS(=O)(=O)c1cccc(-c2ccc3cnc(Nc4ccc(N5CCC(N6CCNC(=O)C6)CC5)cc4)nn23)c1 [Example 562, N-tert-Butyl-3-(2-{4-[4-(3-oxo-piperazin-1-yl)-piperidin-1-yl]-phenylamino}-pyrrolo[2,1-f][1,2,4]triazin-7-yl)-benzenesulfonamide] | 100 to 1000 | < 100 | – | – |
| CN1CCC(c2ccc(Nc3ncc4ccc(-c5cccc(CCC#N)c5)n4n3)cc2)CC1 [Example 1149, 3-(3-{2-[4-(1-Methyl-piperidin-4-yl)-phenylamino]-pyrrolo[2,1-f][1,2,4]triazin-7-yl}-phenyl)-propionitrile] | < 100 | < 100 | – | – |
| N#Cc1ccc2cnc(Nc3ccc(N4CCOCC4)cc3)nn12 [Example 51, 2-(4-Morpholin-4-yl-phenylamino)-pyrrolo[2,1-f][1,2,4]triazine-7-carbonitrile] | – | – | > 10000 | < 100 |
| CC(C)(C)NS(=O)(=O)c1cccc(-c2ccc3cnc(Nc4ccc5nc(CN6CCOCC6)[nH]c5c4)nn23)c1 [Example 1514, N-tert-Butyl-3-[2-(2-morpholin-4-ylmethyl-3H-benzimidazol-5-ylamino)-pyrrolo[2,1-f][1,2,4]triazin-7-yl]-benzenesulfonamide] | – | – | 100 to 1000 | < 100 |
| CS(=O)(=O)N1Cc2cccc(-c3ccc4cnc(Nc5ccc(C6CN(CC(N)=O)C6)cc5)nn34)c2C1 [Example 582, 2-(3-{4-[7-(2-Methanesulfonyl-2,3-dihydro-1H-isoindol-4-yl)-pyrrolo[2,1-f][1,2,4]triazin-2-ylamino]-phenyl}-azetidin-1-yl)-acetamide] | 1000 to 10000 | < 100 | – | – |
| Cc1cc(-c2ccc3cnc(Nc4ccc(N5CCOCC5)cc4)nn23)cnc1F [Example 1047, [7-(6-Fluoro-5-methyl-pyridin-3-yl)-pyrrolo[2,1-f][1,2,4]triazin-2-yl]-(4-morpholin-4-yl-phenyl)-amine] | 1000 to 10000 | < 100 | – | – |
| CN1CCN(c2ccc(Nc3ncc4ccc(C5=CCC(S(C)(=O)=O)CC5)n4n3)cc2)CC1 (stereo not drawn) [Example 620, [7-(4-Methanesulfonyl-cyclohex-1-enyl)-pyrrolo[2,1-f][1,2,4]triazin-2-yl]-[4-(4-methyl-piperazin-1-yl)-phenyl]-amine] | 100 to 1000 | < 100 | – | – |
| Cn1cnc(-c2ccc3cnc(Nc4ccc(N5CCOCC5)cc4)nn23)c1 [Example 1045, [7-(1-Methyl-1H-imidazol-4-yl)-pyrrolo[2,1-f][1,2,4]triazin-2-yl]-(4-morpholin-4-yl-phenyl)-amine] | 1000 to 10000 | < 100 | – | – |
| Cc1cc(N2CCN(C)CC2)ccc1Nc1ncc2ccc(-c3ccc(S(C)(=O)=O)cc3)n2n1 [Example 67, [7-(4-Methanesulfonyl-phenyl)-pyrrolo[2,1-f][1,2,4]triazin-2-yl]-[2-methyl-4-(4-methyl-piperazin-1-yl)-phenyl]-amine] | – | – | 100 to 1000 | < 100 |
| CN(c1ccccc1-c1ccc2cnc(Nc3cnn(CCN4CCOCC4)c3)nn12)S(C)(=O)=O [Example 1193, N-Methyl-N-(2-{2-[1-(2-morpholin-4-yl-ethyl)-1H-pyrazol-4-ylamino]-pyrrolo[2,1-f][1,2,4]triazin-7-yl}-phenyl)-methanesulfonamide] | 1000 to 10000 | < 100 | – | – |
| CN1CCN(c2ccc(Nc3ncc4ccc(-c5cccc(CCC#N)c5)n4n3)cc2)CC1 [Example 1142, 3-(3-{2-[4-(4-Methyl-piperazin-1-yl)-phenylamino]-pyrrolo[2,1-f][1,2,4]triazin-7-yl}-phenyl)-propionitrile] | < 100 | < 100 | – | – |
| COc1ccccc1-c1ccc2cnc(Nc3ccc(N4CCCC(C(=O)N5CCN(C)CC5)C4)cc3)nn12 (stereo not drawn) [Example 443, (1-{4-[7-(2-Methoxy-phenyl)-pyrrolo[2,1-f][1,2,4]triazin-2-ylamino]-phenyl}-piperidin-3-yl)-(4-methyl-piperazin-1-yl)-methanone] | – | – | < 100 | < 100 |
| N-{2-[2-(5,5-Dimethyl-2-oxo-2,3,4,5-tetrahydro-1H-benzo[b]azepin-7-ylamino)pyrrolo[2,1-f][1,2,4]triazin-7-yl}-phenyl]methanesulfonamide [Example 624] | < 100 | < 100 | – | – |

Results, then the compound that gave them:

| IC50 (ALK; [1]) [nM] | IC50 (JAK2; [2]) [nM] | IC50 (ALK; ALK Kinase Inhibition) [nM] | IC50 (JAK2; JAK2 Kinase Inhibition) [nM] | Compound |
| --- | --- | --- | --- | --- |
| > 10000 | < 100 | – | – | COc1ccc(-c2ccc3cnc(Nc4ccc5c(c4)NC(=O)C5(C)C)nn23)cn1 [Example 658, 6-[7-(6-Methoxy-pyridin-3-yl)-pyrrolo[2,1-f][1,2,4]triazin-2-ylamino]-3,3-dimethyl-1,3-dihydro-indol-2-one] |
| < 100 | < 100 | – | – | CN1CCN(c2ccc(Nc3ncc4ccc(-c5cnc6ccccc6c5)n4n3)cc2)CC1 [Example 1037, [4-(4-Methyl-piperazin-1-yl)-phenyl]-(7-quinolin-3-yl-pyrrolo[2,1-f][1,2,4]triazin-2-yl)-amine] |
| 1000 to 10000 | < 100 | – | – | COc1ccc(-c2ccc3cnc(Nc4ccc5c(c4)CN(CC(N)=O)C5)nn23)cn1 [Example 926, 2-{5-[7-(6-Methoxy-pyridin-3-yl)-pyrrolo[2,1-f][1,2,4]triazin-2-ylamino]-1,3-dihydro-isoindol-2-yl}-acetamide] |
| 1000 to 10000 | 1000 to 10000 | – | – | COc1ccc(CN2CCOCC2)cc1Nc1ncc2ccc(-c3ccccc3N(C)S(C)(=O)=O)n2n1 [Example 498, N-{2-[2-(2-Methoxy-5-morpholin-4-ylmethyl-phenylamino)-pyrrolo[2,1-f][1,2,4]triazin-7-yl]-phenyl}-N-methyl-methanesulfonamide] |
| < 100 | 100 to 1000 | – | – | COc1cc(C2CCN(C[C@H](O)C(F)(F)F)CC2)ccc1Nc1ncc2ccc(-c3ccccc3N(C)S(C)(=O)=O)n2n1 [Example 804, N-[2-(2-{2-Methoxy-4-[1-((S)-3,3,3-trifluoro-2-hydroxy-propyl)-piperidin-4-yl]-phenylamino}-pyrrolo[2,1-f][1,2,4]triazin-7-yl)-phenyl]-N-methyl-methanesulfonamide] |
| – | – | 100 to 1000 | < 100 | COc1ccccc1-c1ccc2cnc(Nc3cccc(C(N)=O)c3)nn12 [Example 164, 3-[7-(2-Methoxy-phenyl)-pyrrolo[2,1-f][1,2,4]triazin-2-ylamino]-benzamide] |
| < 100 | < 100 | – | – | COc1cc(N2CCC(N3CCOCC3)CC2)c(C)cc1Nc1ncc2ccc(-c3ccccc3OC)n2n1 [Example 539] |
| – | – | < 100 | < 100 | CCOc1ccccc1-c1ccc2cnc(Nc3ccc(N4CCN(C)CC4)cc3)nn12 [Example 109, [7-(2-Ethoxy-phenyl)-pyrrolo[2,1-f][1,2,4]triazin-2-yl]-[4-(4-methyl-piperazin-1-yl)-phenyl]-amine] |
| 1000 to 10000 | < 100 | – | – | CC(=O)Nc1cccc(Nc2ncc3ccc(-c4cccc(CN(C)S(C)(=O)=O)c4)n3n2)c1 [Example 1053, N-[3-(7-{3-[(Methanesulfonyl-methyl-amino)-methyl]-phenyl}-pyrrolo[2,1-f][1,2,4]triazin-2-ylamino)-phenyl]-acetamide] |
| – | – | 100 to 1000 | < 100 | CC(C)(C)NS(=O)(=O)c1cccc(-c2ccc3cnc(Nc4ccc(OCCN5CCCC5)cc4)nn23)c1 [Example 118, N-tert-Butyl-3-{2-[4-(2-pyrrolidin-1-yl-ethoxy)-phenylamino]-pyrrolo[2,1-f][1,2,4]triazin-7-yl}-benzenesulfonamide] |
| – | – | < 100 | < 100 | COc1cc(N2CCN(C)CC2)ccc1Nc1ncc2ccc(-c3cccc(S(C)(=O)=O)c3)n2n1 [Example 76, [7-(3-Methanesulfonyl-phenyl)-pyrrolo[2,1-f][1,2,4]triazin-2-yl]-[2-methoxy-4-(4-methyl-piperazin-1-yl)-phenyl]-amine] |
| – | – | 100 to 1000 | < 100 | COc1cc(Nc2ncc3ccc(-c4ccccc4)n3n2)cc(OC)c1OC [Example 13, (7-Phenyl-pyrrolo[2,1-f][1,2,4]triazin-2-yl)-(3,4,5-trimethoxy-phenyl)amine] |
| 1000 to 10000 | < 100 | – | – | COc1ccc(-c2ccc3cnc(Nc4ccc(-c5cccnc5)cc4)nn23)cn1 [Example 1088, [7-(6-Methoxy-pyridin-3-yl)-pyrrolo[2,1-f][1,2,4]triazin-2-yl]-(4-pyridin-3-yl-phenyl)-amine] |
| < 100 | 100 to 1000 | – | – | COc1cc(CN2CCOCC2)ccc1Nc1ncc2ccc(-c3ccccc3OC)n2n1 [Example 1220, (2-Methoxy-4-morpholin-4-ylmethyl-phenyl)-[7-(2-methoxy-phenyl)-pyrrolo[2,1-f][1,2,4]triazin-2-yl]-amine] |
| 100 to 1000 | 100 to 1000 | – | – | COc1cc(C(=O)N2CCN(C)CC2)ccc1Nc1ncc2ccc(-c3ccccc3OC)n2n1 [Example 489, {3-Methoxy-4-[7-(2-methoxy-phenyl)-pyrrolo[2,1-f][1,2,4]triazin-2-ylamino]-phenyl}-(4-methyl-piperazin-1-yl)-methanone] |
| – | – | 1000 to 10000 | < 100 | OCc1cccc(-c2ccc3cnc(Nc4cccc(N5CCOCC5)c4)nn23)c1 [Example 1561, {3-[2-(3-Morpholin-4-yl-phenylamino)-pyrrolo[2,1-f][1,2,4]triazin-7-yl]-phenyl}-methanol] |
| 100 to 1000 | < 100 | – | – | COc1ccccc1-c1ccc2cnc(Nc3ccn(CCN4CCOCC4)n3)nn12 [Example 1183, [7-(2-Methoxy-phenyl)-pyrrolo[2,1-f][1,2,4]triazin-2-yl]-[1-(2-morpholin-4-yl-ethyl)-1H-pyrazol-3-yl]-amine] |
